According to PMC6028122, “Thermostabilization and purification of the human dopamine transporter (hDAT) in an inhibitor and allosteric ligand bound conformation” (PLoS ONE, 2018):

Biological target: T1, human dopamine transporter (hDAT) (Homo sapiens, UniProt Q01959, I248Y)
T1 construct: gene SLC6A3; hDAT-I248Y expressed in HEK293S cells
Format: cell-based

T1 sequence (Q01959 whole entry I248Y): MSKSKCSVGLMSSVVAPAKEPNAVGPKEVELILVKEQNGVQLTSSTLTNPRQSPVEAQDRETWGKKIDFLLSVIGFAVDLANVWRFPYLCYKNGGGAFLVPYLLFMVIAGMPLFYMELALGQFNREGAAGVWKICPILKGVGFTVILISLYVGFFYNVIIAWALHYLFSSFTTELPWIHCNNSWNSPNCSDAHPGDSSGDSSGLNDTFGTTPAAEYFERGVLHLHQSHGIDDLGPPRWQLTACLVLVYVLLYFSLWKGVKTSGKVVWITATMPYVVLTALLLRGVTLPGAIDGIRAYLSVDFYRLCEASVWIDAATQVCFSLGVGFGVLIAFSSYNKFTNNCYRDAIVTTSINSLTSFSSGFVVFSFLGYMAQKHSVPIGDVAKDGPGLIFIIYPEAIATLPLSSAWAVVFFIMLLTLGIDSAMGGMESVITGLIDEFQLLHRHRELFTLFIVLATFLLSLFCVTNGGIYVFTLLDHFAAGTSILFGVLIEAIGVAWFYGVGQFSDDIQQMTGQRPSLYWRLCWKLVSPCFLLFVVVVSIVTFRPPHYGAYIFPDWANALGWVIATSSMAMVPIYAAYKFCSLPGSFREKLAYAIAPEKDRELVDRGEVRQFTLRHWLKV

SMILES: NCCc1ccc(O)c(O)c1 [dopamine]
- [3H]dopamine uptake in cells: the I248Y mutant was also able to transport dopamine (S2 Fig)
